Data: ChEMBL document CHEMBL5723583, “Data for DCP probe BAY-9835” (2024)

What was measured:
[1] = target: A disintegrin and metalloproteinase with thrombospondin motifs 7 (Homo sapiens, UniProt Q9UKP4); experiment: Biochemical enzymatic FRET assay (hADAMTS7) ( FRET substrate, HiLyteFluor-488 DELSSMVLELRGLRT-K(QXL520)-E-NH2 (custom synthesis by Anaspec) was used.)
[2] = target: A disintegrin and metalloproteinase with thrombospondin motifs 4 (Homo sapiens, UniProt O75173); experiment: Biochemical enzymatic FRET assay (hADAMTS4) ( FRET substrate, HiLyteFluor-488 DELSSMVLELRGLRT-K(QXL520)-E-NH2 (custom synthesis by Anaspec) was used.)
Sequence of A disintegrin and metalloproteinase with thrombospondin motifs 4 (O75173 whole entry): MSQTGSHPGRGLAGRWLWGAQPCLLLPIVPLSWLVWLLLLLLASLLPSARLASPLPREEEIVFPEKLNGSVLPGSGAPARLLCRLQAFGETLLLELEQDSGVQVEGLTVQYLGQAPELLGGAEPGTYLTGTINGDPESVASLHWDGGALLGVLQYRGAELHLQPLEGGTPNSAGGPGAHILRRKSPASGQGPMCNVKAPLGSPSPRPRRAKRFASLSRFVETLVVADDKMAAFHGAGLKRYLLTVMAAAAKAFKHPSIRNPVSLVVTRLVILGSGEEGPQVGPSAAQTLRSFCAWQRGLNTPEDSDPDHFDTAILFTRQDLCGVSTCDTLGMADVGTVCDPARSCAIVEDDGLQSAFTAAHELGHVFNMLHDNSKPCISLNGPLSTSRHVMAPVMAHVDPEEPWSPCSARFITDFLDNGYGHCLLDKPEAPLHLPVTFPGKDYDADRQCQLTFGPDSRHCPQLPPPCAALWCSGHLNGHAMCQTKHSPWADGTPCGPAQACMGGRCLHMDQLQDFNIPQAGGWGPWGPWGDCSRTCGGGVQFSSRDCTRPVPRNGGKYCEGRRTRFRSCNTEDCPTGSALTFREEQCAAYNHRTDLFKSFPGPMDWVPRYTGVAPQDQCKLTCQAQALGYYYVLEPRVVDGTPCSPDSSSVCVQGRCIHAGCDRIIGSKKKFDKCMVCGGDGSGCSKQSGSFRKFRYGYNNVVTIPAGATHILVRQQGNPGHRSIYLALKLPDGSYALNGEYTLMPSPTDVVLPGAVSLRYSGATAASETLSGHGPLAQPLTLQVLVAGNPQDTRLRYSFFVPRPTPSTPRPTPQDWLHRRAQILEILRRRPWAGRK

Sequence of A disintegrin and metalloproteinase with thrombospondin motifs 7 (Q9UKP4 whole entry): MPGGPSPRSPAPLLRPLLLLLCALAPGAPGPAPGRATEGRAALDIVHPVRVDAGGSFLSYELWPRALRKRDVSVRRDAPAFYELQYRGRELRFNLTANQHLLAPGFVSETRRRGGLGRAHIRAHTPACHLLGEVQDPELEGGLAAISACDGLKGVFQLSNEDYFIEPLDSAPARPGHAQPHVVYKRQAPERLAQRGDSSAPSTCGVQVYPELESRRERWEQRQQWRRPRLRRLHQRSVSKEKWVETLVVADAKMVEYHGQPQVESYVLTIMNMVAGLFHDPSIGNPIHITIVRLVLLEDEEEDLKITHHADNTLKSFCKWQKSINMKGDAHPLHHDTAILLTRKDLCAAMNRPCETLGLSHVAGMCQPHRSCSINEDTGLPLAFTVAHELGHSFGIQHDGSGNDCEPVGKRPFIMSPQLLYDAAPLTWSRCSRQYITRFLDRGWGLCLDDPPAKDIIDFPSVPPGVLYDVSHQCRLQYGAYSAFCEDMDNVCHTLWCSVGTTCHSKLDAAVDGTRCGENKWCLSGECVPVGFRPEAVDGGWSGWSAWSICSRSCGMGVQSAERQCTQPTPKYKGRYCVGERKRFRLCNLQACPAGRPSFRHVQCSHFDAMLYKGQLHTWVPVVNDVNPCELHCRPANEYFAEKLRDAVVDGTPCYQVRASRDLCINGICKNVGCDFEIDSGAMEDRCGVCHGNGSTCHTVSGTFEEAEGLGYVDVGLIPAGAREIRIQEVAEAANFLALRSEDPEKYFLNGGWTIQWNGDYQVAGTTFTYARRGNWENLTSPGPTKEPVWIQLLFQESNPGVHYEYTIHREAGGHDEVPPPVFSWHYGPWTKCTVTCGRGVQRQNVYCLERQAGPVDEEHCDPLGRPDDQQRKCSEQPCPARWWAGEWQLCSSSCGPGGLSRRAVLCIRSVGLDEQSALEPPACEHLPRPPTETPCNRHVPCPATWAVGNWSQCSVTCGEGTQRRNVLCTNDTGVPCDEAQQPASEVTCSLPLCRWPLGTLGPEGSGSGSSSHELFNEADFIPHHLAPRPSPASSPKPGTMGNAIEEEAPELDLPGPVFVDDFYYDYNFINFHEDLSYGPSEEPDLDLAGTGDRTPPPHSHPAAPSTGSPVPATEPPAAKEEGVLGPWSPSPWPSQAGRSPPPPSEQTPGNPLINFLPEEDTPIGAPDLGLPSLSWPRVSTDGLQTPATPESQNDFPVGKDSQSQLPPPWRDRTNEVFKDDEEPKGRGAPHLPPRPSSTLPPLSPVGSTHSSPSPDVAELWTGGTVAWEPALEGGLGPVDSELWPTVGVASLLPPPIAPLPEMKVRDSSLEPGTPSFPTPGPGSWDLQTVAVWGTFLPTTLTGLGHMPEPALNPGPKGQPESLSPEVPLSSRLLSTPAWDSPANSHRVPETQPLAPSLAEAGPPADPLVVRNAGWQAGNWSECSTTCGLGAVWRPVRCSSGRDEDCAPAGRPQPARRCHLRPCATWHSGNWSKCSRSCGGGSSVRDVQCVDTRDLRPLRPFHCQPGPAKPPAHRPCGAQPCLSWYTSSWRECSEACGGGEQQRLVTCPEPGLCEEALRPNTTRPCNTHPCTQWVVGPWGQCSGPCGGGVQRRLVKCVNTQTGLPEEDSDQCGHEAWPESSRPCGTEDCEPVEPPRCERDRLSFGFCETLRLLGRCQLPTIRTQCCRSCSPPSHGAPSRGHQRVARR

Question: Which results are given for Cn1nccc1[C@@]1(CNC(=O)c2ccc(F)cc2-c2ccc(C(F)(F)F)cc2)NC(=O)NC1=O?
Answer: IC50 [1]: 23.4 µM (not active); IC50 [2]: > 50 µM (not active)
